We go through three compounds from ChEMBL document CHEMBL1151661, “Inhibitory effect of tannins on reverse transcriptase from RNA tumor virus” (J Nat Prod, 1985).

SMILES strings stand for the structures. Activity calls are given as the source filed them. The calls are words filed in the database; no cut-off is given here.

The species named for experiment [1] is Bos taurus. Put plainly: Inhibition of calf thymus DNA polymerase-alpha activity using activated calf thymus DNA at 10 uM.
Experiment [2] has as its system Avian myeloblastosis virus. As to the kind of experiment: Inhibition of AMV reverse transcriptase activity assessed as incorporation of dTMP in poly(rA)-oligo(dT) at 0.1 uM. More on the design: scale not given: the % may be the effect or the level left.
Experiment [3] concerns Avian myeloblastosis virus. As to the kind of experiment: Inhibition of AMV reverse transcriptase activity assessed as incorporation of dGMP in poly(rC)-oligo(dG) at 1000 uM. More on the design: scale not given: the % may be the effect or the level left.
The subject of experiment [4] is Avian myeloblastosis virus. As to the kind of experiment: Inhibition of AMV reverse transcriptase activity assessed as incorporation of dTMP in poly(rA)-oligo(dT) at 100 uM. Set-up: scale not given: the % may be the effect or the level left.
Experiment [5] relates to Avian myeloblastosis virus. Put plainly: Inhibition of AMV reverse transcriptase activity assessed as incorporation of dTMP in poly(rA)-oligo(dT) at 1 uM. More on the design: scale not given: the % may be the effect or the level left.
Experiment [6] deals with Avian myeloblastosis virus. As to the kind of experiment: Inhibition of AMV reverse transcriptase activity assessed as incorporation of dTMP in poly(rA)-oligo(dT) at 10 uM. More on the design: scale not given: the % may be the effect or the level left.
Experiment [7] relates to Avian myeloblastosis virus. Put plainly: Inhibition of AMV reverse transcriptase activity assessed as incorporation of dGMP in poly(rC)-oligo(dG) at 0.1 uM. More on the design: scale not given: the % may be the effect or the level left.
The test system of experiment [8] is Avian myeloblastosis virus. Put plainly: Inhibition of AMV reverse transcriptase activity assessed as incorporation of dGMP in poly(rC)-oligo(dG) at 1 uM. Set-up: scale not given: the % may be the effect or the level left.
For experiment [9], the species on record is Bos taurus. As to the kind of experiment: Inhibition of calf thymus DNA polymerase-alpha activity using activated calf thymus DNA at 1000 uM.
The test system of experiment [10] is Avian myeloblastosis virus. Put plainly: Inhibition of AMV reverse transcriptase activity assessed as DNA synthesis treated at 100 uM after 5 mins of initiation of DNA synthesis.
Experiment [11] relates to Avian myeloblastosis virus. As to the kind of experiment: Inhibition of AMV reverse transcriptase activity assessed as incorporation of dGMP in poly(rC)-oligo(dG) at 10 uM. More on the design: scale not given: the % may be the effect or the level left.
Experiment [12] deals with Avian myeloblastosis virus. As to the kind of experiment: Inhibition of AMV reverse transcriptase activity assessed as incorporation of dGMP in poly(rC)-oligo(dG) at 100 uM. Set-up: scale not given: the % may be the effect or the level left.
In experiment [13] the test system is Avian myeloblastosis virus. Put plainly: Inhibition of AMV reverse transcriptase activity assessed as incorporation of dTMP in poly(rA)-oligo(dT) at 1000 uM. Set-up: scale not given: the % may be the effect or the level left.

Regarding `O=C1O[C@H]2[C@@H]3OC(=O)c4cc(O)c(O)c(O)c4-c4c(cc(O)c(O)c4O)C(=O)OC[C@H]2O[C@@H](OC(=O)c2cc(O)c(O)c(O)c2)[C@@H]3OC(=O)c2cc(O)c(O)c3c2[C@@H]2C1=CC(=O)[C@](O)(O3)C2(O)O`, in the experiment listed under Bos taurus [1], the result was inactive. The Activity in [2] turned out to be 89%; in experiment [3] it was 12%; in experiment [4], 6%; in experiment [5], 39%; in experiment [6] it was 12%; in experiment [7] it was 103%. In addition, the Activity stood at 93% in [8], 62% in experiment [11], 15% in [12] and 6% in experiment [13]. Moreover, the outcome (in the experiment filed under Bos taurus [9]; in [10]) was Active.
Turning to `O=C(O)C[C@H]1C(=O)O[C@H]2[C@H](OC(=O)c3cc(O)c(O)c(O)c3)[C@@H](OC(=O)c3cc(O)c(O)c4c3[C@H]1[C@H](O)C(=O)O4)[C@H](OC(=O)c1cc(O)c(O)c(O)c1)O[C@@H]2COC(=O)c1cc(O)c(O)c(O)c1`, the Activity in experiment [2] was found to be 109%; in experiment [3] it was 1%; in [4] it was 24%; in [5], 71%; in experiment [6] it was 22%; in [7], 75%. Further, the Activity in experiment [8] was found to be 67%; in experiment [11] it was 46%; in experiment [12] it was 27%; in experiment [13], 8%.
With `O=C1OC[C@H]2OC(O)[C@@H]3OC(=O)c4cc(O)c(O)c(O)c4-c4c(cc(O)c(O)c4O)C(=O)O[C@H]3[C@@H]2OC(=O)c2cc(O)c(O)c(O)c2-c2c1cc(O)c(O)c2O` (stereo partly drawn), the Activity came out at 88% in experiment [2]; 10% in experiment [3]; 17% in [4]; 51% in experiment [5]; 15% in experiment [6]; 80% in [7]. In addition, the Activity came out at 73% in [8], 41% in experiment [11], 7% in experiment [12] and 4% in experiment [13].
